US12600725B2 (Memorial Sloan-Kettering Cancer Center, priority 2013, dated 2026)
Where “and” joins values, the source holds several entries; their conditions need not be identical. Identical values can stand only once.

Columns and labels:
MDA-MB-468 cells = experiment: Growth inhibition assay (Alamar blue); type: cell-based; settings: Homo sapiens
Method: We evaluated the antiproliferative effects of inhibitors using the dye Alamar blue. This reagent offers a rapid objective measure of cell viability in cell culture, and it uses the indicator dye resazurin to measure the metabolic capacity of cells, an indicator of cell viability. Briefly, MDA-MB-468 cells were plated on Costar 96-well plates at 1500 cells/well. Cells were allowed to incubate for 24 h at 37° C. before drug treatment. Drugs were added in triplicate at the indicated concentrations, and the plate was incubated for 72 h. Alamar Blue (440 μM) was added, and the plate read 6 h later using Softmax Pro 6 software (Fluorescence intensity mode, excitation 530 nm, emission 580 nm, with 560 nm dichroic mirror). Results were analyzed using GraphPad Prism 5. The percentage cell growth inhibition was calculated by comparing fluorescence readings obtained from treated versus control cells, accounting for initial cell population (time zero).

Hsp90α = Hsp90α (Homo sapiens, UniProt P07900); experiment: biochemical; settings: FP competition, 6 nM Cy3B-GM, 10 nM protein, 4° C. for 24 h
Grp94 = Grp94 (Canis lupus familiaris, UniProt P41148); settings: read-out: Grp94; FP competition, 6 nM Cy3B-GM, 10 nM protein, 4° C. for 24 h
Trap-1 = target: T1, Trap-1 (Homo sapiens, UniProt Q12931); experiment: biochemical
T1 sequence (Q12931 60-704): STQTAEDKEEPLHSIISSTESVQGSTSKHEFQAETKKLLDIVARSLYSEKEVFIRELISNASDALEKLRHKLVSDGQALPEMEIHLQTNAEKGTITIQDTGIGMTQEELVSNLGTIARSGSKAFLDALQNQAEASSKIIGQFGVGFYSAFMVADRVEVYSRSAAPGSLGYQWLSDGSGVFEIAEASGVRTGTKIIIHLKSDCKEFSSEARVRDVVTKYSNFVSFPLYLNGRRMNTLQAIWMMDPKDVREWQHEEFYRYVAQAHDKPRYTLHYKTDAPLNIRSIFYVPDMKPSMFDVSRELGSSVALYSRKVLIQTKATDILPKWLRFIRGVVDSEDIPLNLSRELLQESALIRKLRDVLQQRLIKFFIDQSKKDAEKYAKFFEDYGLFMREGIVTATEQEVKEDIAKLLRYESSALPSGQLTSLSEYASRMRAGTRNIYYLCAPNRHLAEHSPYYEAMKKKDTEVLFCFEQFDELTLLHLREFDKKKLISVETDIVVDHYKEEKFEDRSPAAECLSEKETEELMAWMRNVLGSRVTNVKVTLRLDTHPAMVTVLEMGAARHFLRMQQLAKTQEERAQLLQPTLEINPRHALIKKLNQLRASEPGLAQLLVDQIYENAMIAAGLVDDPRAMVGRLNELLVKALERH

Hsp90β = Hsp90β (Homo sapiens, UniProt P08238)
Hsp90β, sequence (P08238 whole entry): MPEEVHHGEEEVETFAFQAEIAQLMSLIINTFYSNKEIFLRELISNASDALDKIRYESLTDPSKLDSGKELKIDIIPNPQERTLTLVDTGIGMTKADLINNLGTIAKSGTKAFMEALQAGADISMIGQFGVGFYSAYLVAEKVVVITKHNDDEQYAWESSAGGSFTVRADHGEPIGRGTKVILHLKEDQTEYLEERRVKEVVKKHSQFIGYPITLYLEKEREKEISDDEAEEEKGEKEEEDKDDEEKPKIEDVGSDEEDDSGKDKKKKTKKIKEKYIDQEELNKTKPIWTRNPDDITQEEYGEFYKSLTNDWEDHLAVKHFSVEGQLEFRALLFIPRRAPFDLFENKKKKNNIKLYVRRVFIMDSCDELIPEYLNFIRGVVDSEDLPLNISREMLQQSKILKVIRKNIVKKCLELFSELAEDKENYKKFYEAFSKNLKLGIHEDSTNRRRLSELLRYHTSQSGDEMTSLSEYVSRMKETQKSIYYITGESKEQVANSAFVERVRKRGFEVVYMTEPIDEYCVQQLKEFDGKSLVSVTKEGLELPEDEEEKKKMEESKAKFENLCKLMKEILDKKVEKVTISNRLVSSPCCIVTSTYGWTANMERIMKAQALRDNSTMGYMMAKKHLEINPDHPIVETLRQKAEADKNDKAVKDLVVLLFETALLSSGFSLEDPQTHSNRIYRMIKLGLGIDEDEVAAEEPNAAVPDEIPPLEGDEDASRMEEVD

Grp94, sequence (P41148 with tags, fused parts or gaps DELINS287-327GGGG): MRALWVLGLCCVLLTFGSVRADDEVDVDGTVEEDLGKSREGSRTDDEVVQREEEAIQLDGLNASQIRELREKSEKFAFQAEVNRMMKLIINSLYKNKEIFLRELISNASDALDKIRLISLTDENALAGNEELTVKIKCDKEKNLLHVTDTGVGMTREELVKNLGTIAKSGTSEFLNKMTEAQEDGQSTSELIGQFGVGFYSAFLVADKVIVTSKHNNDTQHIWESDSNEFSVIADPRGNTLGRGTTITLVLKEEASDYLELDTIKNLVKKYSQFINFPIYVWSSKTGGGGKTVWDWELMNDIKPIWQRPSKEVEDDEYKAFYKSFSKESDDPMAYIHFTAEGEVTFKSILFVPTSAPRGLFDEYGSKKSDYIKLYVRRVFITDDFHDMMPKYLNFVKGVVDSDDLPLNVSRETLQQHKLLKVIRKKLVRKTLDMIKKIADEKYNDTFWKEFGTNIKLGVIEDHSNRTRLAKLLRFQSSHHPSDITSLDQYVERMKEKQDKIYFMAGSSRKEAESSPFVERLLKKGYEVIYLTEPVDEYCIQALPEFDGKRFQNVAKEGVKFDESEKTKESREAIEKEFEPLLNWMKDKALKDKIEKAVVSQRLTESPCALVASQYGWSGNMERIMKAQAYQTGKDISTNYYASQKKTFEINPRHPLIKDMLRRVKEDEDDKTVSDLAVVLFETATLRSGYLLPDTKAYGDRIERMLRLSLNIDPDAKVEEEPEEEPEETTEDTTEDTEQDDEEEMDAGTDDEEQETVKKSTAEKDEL

Row | IC50 (MDA-MB-468 cells) [µM] | IC50 (Hsp90α) | IC50 (Grp94) [µM] | IC50 (Trap-1) [µM] | IC50 (Hsp90β) [µM] | SMILES
1 | 0.125 | 43.2 µM | 0.24 | – | – | CC(C)NCCCn1c(Sc2cc(Cl)cc(I)c2)nc2c(N)ncnc21 [HJP-V-149, 8-((3-chloro-5-iodophenyl)thio)-9-(3-(isopropylamino)propyl)-9H-purin-6-amine]
2 | 0.212 | 41.8 µM | 0.29 | – | – | CC(C)CNCCCn1c(Sc2cc(Cl)cc(I)c2)nc2c(N)ncnc21 [HJP-VI-4, 8-((3-chloro-5-iodophenyl)thio)-9-(3-(isobutylamino)propyl)-9H-purin-6-amine]
3 | 0.063 | 20 µM | 0.21 | – | – | C=C(C)c1cc(Cl)cc(Sc2nc3c(N)ncnc3n2CCCNC(C)C)c1 [HJP-VI-12, 8-((3-chloro-5-(prop-1-en-2-yl)phenyl)thio)-9-(3-(isopropylamino)propyl)-9H-purin-6-amine]
4 | 0.122 | 152 µM | 0.9 | – | – | C#Cc1cc(Cl)cc(Sc2nc3c(N)ncnc3n2CCCNC(C)C)c1 [HJP-VI-18, 8-((3-chloro-5-ethynylphenyl)thio)-9-(3-(isopropylamino)propyl)-9H-purin-6-amine]
5 | 0.286 | – | 0.22 | – | – | CC(C)NCCCn1c(Sc2cc(Cl)cc(-c3ccc[nH]3)c2)nc2c(N)ncnc21 [HJP-VI-28, 8-((3-chloro-5-(1H-pyrrol-2-yl)phenyl)thio)-9-(3-(isopropylamino)propyl)-9H-purin-6-amine]
6 | 0.516 | 25.9 µM | 1.2 | – | – | CC(C)NCCCn1c(Sc2cc(Cl)cc(-c3ccn[nH]3)c2)nc2c(N)ncnc21 [HJP-VI-29, 8-((3-chloro-5-(1H-pyrazol-5-yl)phenyl)thio)-9-(3-(isopropylamino)propyl)-9H-purin-6-amine]
7 | 0.129 | 48.9 µM | 0.63 | – | – | C=Cc1cc(Cl)cc(Sc2nc3c(N)ncnc3n2CCCNC(C)C)c1 [HJP-VI-31, 8-((3-chloro-5-vinylphenyl)thio)-9-(3-(isopropylamino)propyl)-9H-purin-6-amine]
8 | 5.85 | 3.4 µM | 0.21 | – | – | CC(C)NCCCn1c(Sc2ccc(Cl)cc2I)nc2c(N)ncnc21 [HJP-VI-36, 8-((4-chloro-2-iodophenyl)thio)-9-(3-(isopropylamino)propyl)-9H-purin-6-amine]
9 | 0.166 | 21.3 µM | 0.28 | – | – | CC(C)NCCCn1c(Sc2cc(Cl)cc(-c3ccoc3)c2)nc2c(N)ncnc21 [HJP-VI-39, 8-((3-chloro-5-(furan-3-yl)phenyl)thio)-9-(3-(isopropylamino)propyl)-9H-purin-6-amine]
10 | 6.58 | 1.5 µM | 0.45 | – | – | CC(C)NCCCn1c(Sc2ccc(Cl)cc2-c2ccn[nH]2)nc2c(N)ncnc21 [HJP-VI-43, 8-((4-chloro-2-(1H-pyrazol-5-yl)phenyl)thio)-9-(3-(isopropylamino)propyl)-9H-purin-6-amine]
11 | 0.917 | 12.3 µM | 0.83 | – | – | CC(C)NCCCn1c(Sc2cc(Cl)cc(-c3cc[nH]c3)c2)nc2c(N)ncnc21 [HJP-VI-44, 8-((3-chloro-5-(1H-pyrrol-3-yl)phenyl)thio)-9-(3-(isopropylamino)propyl)-9H-purin-6-amine]
12 | – | > 100 µM | 2.78 ± 0.21 | > 100 | > 100 | C#CCCCn1c(Sc2cc(Cl)cc3c(Cl)ccnc23)nc2c(N)ncnc21 [PDP-I-79-N9]

More lines, now with the values behind:

Row | SMILES | IC50 (MDA-MB-468 cells) [µM] | IC50 (Hsp90α) | IC50 (Grp94) [µM] | IC50 (Trap-1) [µM] | IC50 (Hsp90β) [µM]
13 | CC(C)(C)CNCCCn1c(Sc2cc(Cl)cc(I)c2)nc2c(N)ncnc21 [HJP-VI-5, 8-((3-chloro-5-iodophenyl)thio)-9-(3-(neopentylamino)propyl)-9H-purin-6-amine] | 0.562 | > 25 µM | 0.49 | – | –
14 | CC(C)(C)NCCCn1c(Sc2cc(Cl)cc(I)c2)nc2c(N)ncnc21 [HJP-VI-6, 9-(3-(tert-butylamino)propyl)-8-((3-chloro-5-iodophenyl)thio)-9H-purin-6-amine] | 0.314 | 27.8 µM | 0.54 | – | –
15 | C#CCCCn1c(Sc2cc(Br)cc(OC(F)(F)F)c2)nc2c(N)ncnc21 [PDP-120A, 8-((3-Bromo-5-(trifluoromethoxy)phenyl)thio)-9-(pent-4-yn-1-yl)-9H-purin-6-amine] | – | > 100 µM | 1.21 | 1.87 | > 100
16 | C#CCCCn1cnc(N)c2nc(Sc3cc(Br)cc(OC(F)(F)F)c3)nc1-2 [PDP-120B] | – | > 100 µM | > 10 | > 100 | > 100
17 | C#CCCCn1c(Sc2cc(Cl)c(Cl)c(Cl)c2)nc2c(N)ncnc21 [PDP-121] | – | > 100 µM | 1.66 ± 0.48 | 2.2 ± 0.67 | > 100
18 | C#CCCCn1c(Sc2ccc(C(F)(F)F)cc2C(F)(F)F)nc2c(N)ncnc21 [PDP-122] | – | > 100 µM | 0.5 ± 0.39 | 7.64 ± 2.15 | > 100
19 | C#CCCCn1c(Sc2cc(Cl)cc(Cl)c2Cl)nc2c(N)ncnc21 [PDP-125A] | – | > 100 µM | 0.19 ± 0.01 | 6.04 ± 0.55 | > 100
20 | C#CCCCn1cnc(N)c2nc(Sc3cc(Cl)cc(Cl)c3Cl)nc1-2 [PDP-125B] | – | > 100 µM | 5.21 | 58.8 | > 100
21 | C#CCCCn1c(Sc2ccc(Cl)c(Cl)c2Cl)nc2c(N)ncnc21 [PDP-126A] | – | 15.7 ± 0.35 µM | 0.27 ± 0.14 | 4.03 ± 0.89 | 18.3 ± 1.29
22 | C#CCCCn1cnc(N)c2nc(Sc3ccc(Cl)c(Cl)c3Cl)nc1-2 [PDP-126B] | – | > 100 µM | 8.7 | 34.1 | > 100
23 | Nc1ncnc2c1nc(Sc1cc(Cl)cc(Cl)c1)n2CCc1ccccc1 [PDP-127, 8-((3,5-Dichlorophenyl)thio)-9-phenethyl-9H-purin-6-amine] | – | > 100 µM | > 2.5 | > 100 | > 100
24 | Nc1ncn(CCC(F)(F)F)c2nc(Sc3cc(Cl)cc(Cl)c3)nc1-2 [PDP-I-13-N3, 8-((3,5-Dichlorophenyl)thio)-3-(3,3,3-trifluoropropyl)-3H-purin-6-amine] | – | > 50 µM | 12.8 ± 0.86 | > 100 | > 100
25 | Nc1ncnc2c1nc(Sc1cc(Cl)cc(Cl)c1)n2CCC(F)(F)F [PDP-I-13-N9, 8-((3,5-Dichlorophenyl)thio)-9-(3,3,3-trifluoropropyl)-9H-purin-6-amine] | – | > 50 µM | 0.57 ± 0.08 | 10.1 ± 1.13 | > 100
26 | C#CCCn1c(Sc2cc(Cl)cc(Cl)c2)nc2c(N)ncnc21 [PDP-I-14-N9, 9-(But-3-yn-1-yl)-8-((3,5-dichlorophenyl)thio)-9H-purin-6-amine] | – | > 100 µM | 0.27 ± 0.02 | > 100 | > 100
27 | C#CCCCn1c(Sc2cccc3ccccc23)nc2c(N)ncnc21 [PDP-I-16-N9] | – | > 100 µM | 2.16 ± 0.21 | > 100 | > 100
28 | C#CCCCn1c(Sc2ccc(Cl)c(Cl)c2)nc2c(N)ncnc21 [PDP-I-25-N9] | – | 4.82 ± 1.05 µM | 0.42 ± 0.04 | 2.35 ± 0.09 | 10.2 ± 1.62
29 | C#CCCCn1c(Sc2ccc(Br)cc2CC)nc2c(N)ncnc21 [PDP-I-54-N9] | – | 13.9 µM and 14 µM | 0.66 ± 0.1 | 4.9 ± 0.27 | > 50
30 | C#CCCCn1c(Sc2cc(Br)cc(Br)c2)nc2c(N)ncnc21 [PDP-I-59-N9] | – | > 100 µM | 0.26 ± 0.07 | > 100 | > 100
31 | C#CCCCn1c(Sc2ccc(Br)cn2)nc2c(N)ncnc21 [PDP-I-60-N9] | – | 2.18 ± 0.1 µM | 0.53 ± 0.03 | 2.18 ± 0.55 | 2.82
32 | COc1cc(Cc2nc3c(N)ncnc3n2C(C)C)cc(OC)c1OC [PU-27] | – | > 500 µM | 59.3 ± 2.69 | > 300 | > 250
33 | CCC[C@H](C)n1c(Cc2cc(OC)c(OC)c(OC)c2)nc2c(N)ncnc21 [PU-34] | – | > 500 µM | 91.3 ± 2.16 | 227 ± 6.6 | > 250
34 | C#CCCCn1cnc(N)c2nc(Sc3ccc(OC)cc3OC)nc1-2 [PU-H44] | – | > 100 µM | 46.8 | > 100 | > 100
